Data from PMC2362731, “Phase I study of Carzelesin (U-80,244) given (4-weekly) by intravenous bolus schedule” (British Journal of Cancer, 1999).

Legend:
[1] = system: granulocytes (ANC), white blood cells (WBC), platelets; assay: Pharmacokinetic-pharmacodynamic relationship of bone marrow toxicity (%decr vs AUC); assay type: in vivo
Description: Carzelesin (U-80,244, Figure 1A) is a cyclopropylpyrroloindole (CPI) prodrug analogue of CC-1065. […] CPI drugs are a class of compounds with unique DNA interactive properties. These agents fit into the minor groove region of DNA, and the CPI function in the molecule mediates a covalent binding to the N3 position of adenine in A-T rich regions, thus forming DNA adducts in a sequence selective fashion (Hurley et al, 1984; Reynolds et al, 1985). Three new CPIs have now been developed. […] Bizelesin differs from the classical CPI drugs in that it contains two chloromethyl functions, which are both converted (via intramolecular rearrangements) to the CPI alkyl- ating species that interact with DNA. Consequently, this agent is capable of forming DNA interstrand cross-links (Lee et al, 1991). […] Therefore, efforts were directed to modu- late the alkylation rate by the preparation of CPI prodrugs that would require chemical or enzymatic conversion. The activation of Carzelesin is a two-step reaction with hydrolysis of the phenyl- urethane substituent to form the intermediate compound U-76,073, followed by ring closure to form the active product U-76,074 (Figure 1B). […] This higher efficacy may be related to the pharmacologic features of the compound. […] Phase I study of Carzelesin (U-80,244) given (4-weekly) by intravenous bolus schedule A Awada1, CJA Punt2, MJ Piccart1, O Van Tellingen3, L Van Manen2, J Kerger1, Y Groot4, J Wanders4, J Verweij5 and DJTh Wagener2 1Institut Jules Bordet, Bd de Waterloo 125, 1000 Brussels, Belgium; 2University Hospital, Geert Grooteplein 8, Box 9101, 6500 HB Nijmegen, The Netherlands; 3The Netherlands Cancer Institute (Antoni van Leeuwenhoek Huis), Plesmanlaan 121, 1066 CX Amsterdam, The Netherlands; 4European Organization for Research and Treatment of Cancer - New Drug Development Office, PO Box 7057, Amsterdam, The Netherlands; 5Rotterdam Cancer Institute, Groene Hilledijk 301, 3075 EA Rotterdam, The Netherlands; on behalf of the EORTC Early Clinical Studies Group and EORTC NDDO Summary Carzelesin is a cyclopropylpyrroloindole analogue which acts as a DNA-sequence-specific alkylating agent. In this phase I study, Carzelesin was given as a 4-weekly 10 min IV infusion to 51 patients with advanced solid tumours. Patients received a median of two courses (range 1-5) at one of nine dose levels: […]. According to NCI-CTC criteria, non- haematological toxicities (grade 1/2) included fever, nausea and vomiting, mucositis and anorexia, none of which was clearly dose related. […] The concentration of U-76,074 (active metabolite) extended above the lower limit of quantitation (1 ng ml-1) for short periods of time and only at the higher dose levels. […]

[2] = system: murine and human tumour xenografts; settings: ref Li et al, 1992, cited from earlier work
[3] = system: bone marrow, kidney, liver and spleen; parameters: method as in EORTC-NDDO, 1992; settings: ref EORTC-NDDO, 1992; cited from earlier work

## CCN(CC)c1ccc2cc(C(=O)Nc3ccc4[nH]c(C(=O)N5C[C@@H](CCl)c6c5cc(OC(=O)Nc5ccccc5)c5[nH]cc(C)c65)cc4c3)oc2c1 [Carzelesin]
[1]; human, in vivo
  AUC in other patients with marked toxicity: less than 20 ng ml.h-1
[1]; patient at 300 with only very modest toxicity
  highest AUC observed in this series: 43.2 ng·mL/h
[1]; second course, exception patient treated at 300
  %decr in ANC: 82%
[2]; compared with adozelesin
  efficacy in a broad panel of murine and human tumour xenografts: more efficacious
[2]; Houghton et al, 1995
  efficacy against Lewis lung carcinoma, B16 melanoma, colon 38 carcinoma, colon CX1 adenocarcinoma, lung LX-1 tumour, ovarian 2780 and prostatic DU-145 carcinoma: highly effective
[3]
  organs in which toxicity occurred in preclinical studies: bone marrow, kidney, liver and spleen
